What was measured:
[1] = molecular target: T1, Calcitonin gene-related peptide type 1 receptor (Homo sapiens, UniProt O60894+Q16602); experiment: Displacement of [125I]hCGRP from human cloned CGRP receptor expressed in HEK293 cells; assay type: cell-based
[2] = molecular target: T1, Calcitonin gene-related peptide type 1 receptor; experiment: Antagonist activity at human cloned CGRP receptor expressed in HEK293 cells assessed as inhibition of CGRP-induced cAMP production; assay type: functional, cell-based

T1 sequence (Q16602 whole entry, one chain of several): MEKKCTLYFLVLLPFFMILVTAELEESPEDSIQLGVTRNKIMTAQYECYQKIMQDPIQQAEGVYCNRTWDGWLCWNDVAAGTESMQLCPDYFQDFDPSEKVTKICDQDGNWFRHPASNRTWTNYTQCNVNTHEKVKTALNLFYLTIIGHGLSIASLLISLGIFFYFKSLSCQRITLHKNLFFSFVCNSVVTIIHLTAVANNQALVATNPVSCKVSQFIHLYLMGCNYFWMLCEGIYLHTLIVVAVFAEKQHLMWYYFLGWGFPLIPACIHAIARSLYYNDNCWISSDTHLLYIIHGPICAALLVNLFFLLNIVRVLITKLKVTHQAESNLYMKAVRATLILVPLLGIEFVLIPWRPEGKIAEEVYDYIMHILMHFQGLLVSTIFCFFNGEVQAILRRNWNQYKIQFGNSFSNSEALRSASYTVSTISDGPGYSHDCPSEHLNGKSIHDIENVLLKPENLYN

Row | SMILES | Ki [1] [nM] | IC50 [2] [nM]
1 | C[C@H](c1cc(F)cc(F)c1)N(CC(=O)Nc1ccc2c(c1)C[C@@]1(C2)C(=O)NC(=O)N1C)C(=O)C(C)(C)C | 0.26 | 
2 | Cc1cccc(CN(CC(=O)Nc2ccc3c(c2)CC2(C3)C(=O)NC(=O)N2C)C(=O)C(C)(C)C)c1 (racemic) | 7.9 | 
3 | CN1C(=O)NC(=O)C12Cc1ccc(NC(=O)CN(Cc3ccc(F)cc3)C(=O)C(C)(C)C)cc1C2 (racemic) | 3.7 | 
4 | NCC12CC(=O)Nc3cccc(c31)N(Cc1ccc3cc4c(cc3n1)C[C@]1(C4)C(=O)Nc3ncccc31)C2=O (stereo partly drawn) | 0.13 | 0.62
5 | CN1C(=O)NC(=O)[C@@]12Cc1ccc(NC(=O)CN(Cc3cc(F)cc(F)c3)C(=O)C(C)(C)C)cc1C2 | 0.55 | 
6 | CC1(C)CC[C@@H](c2c(F)cccc2F)N(CC(=O)Nc2ccc3c(c2)C[C@]2(C3)C(=O)Nc3ncccc32)C1=O | 0.035 | 0.12
7 | C[C@H](c1ccccc1)N(CC(=O)Nc1ccc2c(c1)C[C@@]1(C2)C(=O)NC(=O)N1C)C(=O)C(C)(C)C | 0.83 | 
8 | COc1cccc(CN(CC(=O)Nc2ccc3c(c2)CC2(C3)C(=O)NC(=O)N2C)C(=O)C(C)(C)C)c1 (racemic) | 45 | 
9 | CN1C(=O)NC(=O)C12Cc1ccc(NC(=O)CN(Cc3ccc(C(F)(F)F)cc3)C(=O)C(C)(C)C)cc1C2 (racemic) | 25 | 
10 | CN1C(=O)NC(=O)[C@@]12Cc1ccc(NC(=O)CN(Cc3cc(Cl)cc(Cl)c3)C(=O)C(C)(C)C)cc1C2 | 4.4 | 
11 | CN1C(=O)NC(=O)C12Cc1ccc(NC(=O)CN(Cc3cccc(F)c3)C(=O)C(C)(C)C)cc1C2 (racemic) | 1.6 | 
12 | CN1C(=O)NC(=O)C12Cc1ccc(NC(=O)CN(Cc3cccc(C#N)c3)C(=O)C(C)(C)C)cc1C2 (racemic) | 23 | 
13 | CN1C(=O)NC(=O)C12Cc1ccc(NC(=O)CN(Cc3ccccc3F)C(=O)C(C)(C)C)cc1C2 (racemic) | 14 | 
14 | CN1C(=O)NC(=O)C12Cc1ccc(NC(=O)CN(Cc3cccc(Cl)c3)C(=O)C(C)(C)C)cc1C2 (racemic) | 1.8 | 
15 | CN1C(=O)NC(=O)[C@@]12Cc1ccc(NC(=O)CN(Cc3cc(F)cc(Cl)c3)C(=O)C(C)(C)C)cc1C2 | 1.2 | 
16 | C[C@@H](c1ccccc1)N(CC(=O)Nc1ccc2c(c1)C[C@@]1(C2)C(=O)NC(=O)N1C)C(=O)C(C)(C)C | 56 | 

Source: ChEMBL document CHEMBL1156010, “Novel CGRP receptor antagonists through a design strategy of target simplification with addition of molecular flexibility” (Bioorg Med Chem Lett, 2009)
